Experimental data reported in US20230103965A1, “NOVEL ACTIVATORS OF THE LIPIDATING TRANSPORTER ATP BINDING CASSETTE PROTEIN TYPE 1 (AB-CA1) AND THERAPEUTIC USES THEREOF” (RAMOT AT TEL-AVIV UNIVERSITY LTD., priority 2020, published 2023).

Experiments:
[1] = tested on: Rodent Astrocytes; experiment: In situ Aβ plaque digestion by apoE4 astrocytes (orthogonal assay); assay type: cell-based
Experimental: FIG. 7: Schematic representation of assay measuring in situ A$ plaque degradation by apoE3 and apoE4 astrocytes. The assay is designed to measure the ability of astrocytes to digest senile plaques from brain slides of APP mice, which is impaired in apoE4 expressing astrocytes.
FIG. 9: Activity of test compounds (HTS hits) in the plaque digestion assay. Positive control is CS-6253 (25 μg/ml). Test compound concentration is 50 μM.
In situ Aβ plaque degradation by apoE3 and apoE4 astrocytes. This assay is based on measurement of the ability of the astrocytes to clear Aβ plaques following their co-incubation with brain sections of 5×FAD mice, which contain Aβ plaques. Accordingly, 20 μm coronal frozen brain sections were prepared from 9-13-month-old 5×FAD mice using cryostat and placed on glass slides, 3-4 consecutive sections in each slide. The slides were kept at −80° C. until used. At the beginning of the experiment, the slices were incubated for 48 hr at 37° C. with apoE3 and apoE4 astrocytes (10^5 cells in 100 μl medium per slice) in the presence of 50 μM, or otherwise indicated concentrations, of the HTS hits. The slides were gently placed in round petri dishes with thick wet paper, surrounding the slides. PapPen was used to draw liquid repellent borders of the sections to avoid spillage of coating out of the slides. The slides were gently washed of all containing remains by placing them in PBS for 10 minutes, and were then fixated with 4% PFA for 10 minutes, followed by 0.1% Triton solution for 10 minutes. The slides were then incubated with blocking solution (8% Horse Serum, 0.3% Triton, 1 gr/ml BSA, 0.02% Sodium Azide in PBS) for 30 minutes after which they were immunohistochemically stained with primary anti-PAmyloid (6E10) antibody at a dilution of 1:750 in blocking solution for 1 hr at room temperature. This was then followed by washing (×5 with PBST) and incubation with the secondary antibody (Alexa Fluor® 488 donkey α-mouse IgG, A-21202 at dilution of 1:250 at room temperature for 45 minutes. Nuclei were stained with DAPI (Vektashield, Burlingame, Calif.; H-1200). Analysis of the Aβ plaque burden was performed as percentage of the area covered in plaques using the ImageJ software.
(i) Orthogonal assay which monitors the extent to which the hits can reverse the impaired ability of apoE4 astrocytes to digest Aβ senile plaques in vitro. The principle of this orthogonal assay is presented in FIGS. 7 & 8 [17], whereas the activity of the HTS hits in this assay is presented in FIG. 9.

[2] = tested on: apoE4 astrocytic cell line; experiment: Cellular viability / cytotoxicity of the hits; assay type: cell-based, Rodent; conditions: 50 μM
Experimental: FIG. 10: Effects of test compounds (HTS hits) on cellular viability. Experiments were performed on apoE4 astrocytic cell line in the presence of 50 μM of the indicated compounds. Viability was measured microscopically and by measurements of total cellular protein. (ii) Measurements of cytotoxicity of the hits.

[3] = biological target: T1, ECD1 of ABCA1 (Homo sapiens, UniProt O95477); experiment: Microscale thermophoresis (MST) binding, labelled protein
T1 construct: The proteins used in these experiments were Extra-Cellular Domain 1 (ECD1) of ABCA1 and Extra-Cellular Domain 2 (ECD2); purchased Biomatick
T1 sequence (O95477 43-639 limits assumed): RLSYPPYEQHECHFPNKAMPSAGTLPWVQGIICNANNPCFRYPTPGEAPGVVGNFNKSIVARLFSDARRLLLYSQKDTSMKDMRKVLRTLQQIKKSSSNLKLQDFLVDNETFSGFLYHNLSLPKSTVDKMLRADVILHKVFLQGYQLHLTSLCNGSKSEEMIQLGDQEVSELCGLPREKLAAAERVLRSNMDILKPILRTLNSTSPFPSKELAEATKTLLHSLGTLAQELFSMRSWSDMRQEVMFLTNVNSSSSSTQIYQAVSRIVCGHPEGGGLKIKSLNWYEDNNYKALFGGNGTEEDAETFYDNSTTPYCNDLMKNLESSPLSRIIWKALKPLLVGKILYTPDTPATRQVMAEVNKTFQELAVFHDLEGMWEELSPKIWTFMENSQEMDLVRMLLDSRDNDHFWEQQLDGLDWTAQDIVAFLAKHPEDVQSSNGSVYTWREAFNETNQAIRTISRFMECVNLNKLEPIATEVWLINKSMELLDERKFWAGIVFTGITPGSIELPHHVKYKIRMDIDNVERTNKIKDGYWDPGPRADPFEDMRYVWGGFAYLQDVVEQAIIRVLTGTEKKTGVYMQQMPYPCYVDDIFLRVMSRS
Experimental: (§1) Microscale thermophoresis (MST) measurements. MST measurements of the binding of the HTS hits to the extracellular domain (ECD) of ABCA1 were performed by two complimentary methods utilizing either fluorescently labeled proteins or the endogenous fluorescence of unlabeled proteins. This was pursued as follows:
The buffers of protein samples were exchanged on a desalting PD-10 column to MST labelling buffer (Nanotemper Technologies, NT.115). Each protein was labeled with Alexa Fluor 650 succinimidyl-ester (Thermo Fisher Scientific) in 3-fold excess and then incubated for 1 hr in the dark at room temperature. Excess dye was removed by PD-10 desalting columns. […] Protein-compound interactions were analyzed by microscale thermophoresis. […] Hits were prepared at the highest concentration soluble in MST buffer (Nanotemper)+10% DMSO. Next, hits were diluted by 2 in 16 consecutive tubes of 10 μl per tube. Then, 10 μl of the protein were added to each tube and centrifuged in 12,000 rpm for 10 minutes. Finally, the samples were loaded to the capillaries and were inserted to the MST machine. Experiments were performed on a microMonolith NT.115 Blue/Red (NanoTemper Technologies) in duplicates. Measurements were performed in standard glass capillaries (NanoTemper Technologies). […] All dissociation constants (KD) were calculated to a binding model assuming a 1:1 stoichiometry per binding partner.
(§2) The experiments were performed with the purified extracellual domains 1 (ECD1) and 2 (ECD2) of ABCA1 [18]. Two complementary MST tests were performed, in which either the proteins were labeled with a fluorescence moiety or the endogenous fluorescence of the unlabeled proteins was monitored).

[4] = biological target: T1, ECD1 of ABCA1; experiment: Microscale thermophoresis (MST) binding, label free protein; conditions: unlabelled ECD1
Experimental: as §1, §2

[5] = biological target: T2, ABCA1 (Homo sapiens, UniProt O95477); experiment: ABCA1 dependency of cholesterol efflux in BHK cells with inducible ABCA1; assay type: cell-based; conditions: for ABCA1 dependency of the effect on cholesterol efflux: BHK cells, presence vs absence of ABCA1
T2 construct: expressed in transfected cells; host or cells: BHK (baby hamster kidney) cells, ABCA1 induced with mifepristone
T2 sequence (O95477 whole entry): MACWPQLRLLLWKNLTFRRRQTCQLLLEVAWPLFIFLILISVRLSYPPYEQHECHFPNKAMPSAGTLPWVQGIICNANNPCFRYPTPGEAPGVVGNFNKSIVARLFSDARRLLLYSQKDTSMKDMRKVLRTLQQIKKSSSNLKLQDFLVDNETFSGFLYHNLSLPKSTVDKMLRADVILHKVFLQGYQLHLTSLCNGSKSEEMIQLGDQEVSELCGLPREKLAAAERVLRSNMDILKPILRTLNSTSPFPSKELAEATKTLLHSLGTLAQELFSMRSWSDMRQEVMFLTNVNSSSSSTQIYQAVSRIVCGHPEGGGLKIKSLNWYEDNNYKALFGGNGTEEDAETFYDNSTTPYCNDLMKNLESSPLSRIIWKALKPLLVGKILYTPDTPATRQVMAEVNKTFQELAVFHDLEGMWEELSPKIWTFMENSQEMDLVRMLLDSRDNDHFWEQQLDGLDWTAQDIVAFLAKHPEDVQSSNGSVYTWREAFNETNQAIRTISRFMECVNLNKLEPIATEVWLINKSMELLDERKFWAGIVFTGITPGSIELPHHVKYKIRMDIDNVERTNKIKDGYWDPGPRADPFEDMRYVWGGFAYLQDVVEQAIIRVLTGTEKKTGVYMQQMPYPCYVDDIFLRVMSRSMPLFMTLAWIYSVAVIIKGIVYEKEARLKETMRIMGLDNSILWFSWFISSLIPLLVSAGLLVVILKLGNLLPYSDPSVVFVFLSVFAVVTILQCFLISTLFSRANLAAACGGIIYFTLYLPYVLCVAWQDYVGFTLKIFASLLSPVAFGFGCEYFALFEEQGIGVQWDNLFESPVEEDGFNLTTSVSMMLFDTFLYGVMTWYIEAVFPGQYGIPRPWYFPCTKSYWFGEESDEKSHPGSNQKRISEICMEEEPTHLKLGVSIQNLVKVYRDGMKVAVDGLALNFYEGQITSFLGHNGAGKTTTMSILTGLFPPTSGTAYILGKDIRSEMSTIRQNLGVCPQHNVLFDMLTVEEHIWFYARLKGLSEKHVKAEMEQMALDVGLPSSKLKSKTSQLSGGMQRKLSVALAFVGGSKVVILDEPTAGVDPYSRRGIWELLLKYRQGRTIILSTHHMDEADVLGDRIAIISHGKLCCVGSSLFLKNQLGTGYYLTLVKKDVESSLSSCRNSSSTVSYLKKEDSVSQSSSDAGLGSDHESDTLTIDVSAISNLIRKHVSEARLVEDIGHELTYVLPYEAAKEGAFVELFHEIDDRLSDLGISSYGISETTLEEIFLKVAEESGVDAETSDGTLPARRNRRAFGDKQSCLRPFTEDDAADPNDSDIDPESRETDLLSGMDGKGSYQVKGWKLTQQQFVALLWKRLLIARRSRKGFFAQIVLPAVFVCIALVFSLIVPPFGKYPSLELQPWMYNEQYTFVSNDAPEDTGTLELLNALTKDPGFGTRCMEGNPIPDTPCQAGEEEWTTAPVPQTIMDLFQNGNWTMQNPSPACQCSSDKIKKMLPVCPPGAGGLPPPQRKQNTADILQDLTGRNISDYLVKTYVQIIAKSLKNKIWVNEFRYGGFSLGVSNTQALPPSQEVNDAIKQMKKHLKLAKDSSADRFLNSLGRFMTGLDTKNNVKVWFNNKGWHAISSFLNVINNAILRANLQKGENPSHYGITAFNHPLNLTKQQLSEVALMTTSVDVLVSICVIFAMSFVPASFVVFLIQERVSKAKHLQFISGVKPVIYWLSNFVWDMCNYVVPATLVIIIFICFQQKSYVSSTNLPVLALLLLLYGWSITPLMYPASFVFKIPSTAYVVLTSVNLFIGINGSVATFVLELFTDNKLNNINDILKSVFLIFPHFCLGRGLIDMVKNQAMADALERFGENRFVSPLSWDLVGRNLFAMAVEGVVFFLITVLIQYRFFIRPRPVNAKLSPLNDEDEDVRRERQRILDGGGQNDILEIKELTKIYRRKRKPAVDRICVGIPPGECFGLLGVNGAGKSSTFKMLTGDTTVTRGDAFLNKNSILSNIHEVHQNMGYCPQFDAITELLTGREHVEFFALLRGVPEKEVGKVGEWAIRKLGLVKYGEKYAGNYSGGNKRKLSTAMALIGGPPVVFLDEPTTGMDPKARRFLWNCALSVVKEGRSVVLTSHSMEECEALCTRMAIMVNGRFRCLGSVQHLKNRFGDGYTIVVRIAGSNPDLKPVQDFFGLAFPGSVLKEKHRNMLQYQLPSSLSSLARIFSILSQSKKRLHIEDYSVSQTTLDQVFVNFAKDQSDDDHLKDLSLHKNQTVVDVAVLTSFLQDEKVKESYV
Experimental: (§3) Mife=Mifepristone which induces the expression of ABCA1.
as §3
(iii) Assessment of the ABCA1 dependency of the effects of the hits on cholesterol efflux. These experiments investigated the extent to which ABCA1 is indeed the target of the hits. This was performed utilizing BHK (baby hamster kidney) cells with inducible expression of ABCA1 followed by determination of the effects for the presence and absence of ABCA1 on the translocation of cholesterol to apoE4.

| Compound | Binding to ECD1 (Labelled MST) Amplitude [3] [a.u.] | Kd [3] [µM] | Binding to ECD1 (Label free MST) Amplitude [4] [a.u.] | Kd [4] [µM] | ABCA1 dependency of the effect on cholesterol efflux [5] | Plaque digestion assay (50 μM) Rodent Astrocytes ([1]; Table 2) [%] | Plaque digestion assay (50 μM) Rodent Astrocytes ([1]; Table 4) [%] | Viability Rodent Astrocytes ([2]; Table 2) | Viability Rodent Astrocytes ([2]; Table 4) | Lipidation of apoE4 in the absence of ABCA1 ([5]; BHK cells not expressing ABCA1) | ABCA1 dependency BHK Cells ([5]; Table 2) | ABCA1 dependency BHK Cells ([5]; Table 4) | Cholesterol efflux from ABCA1 expressing BHK cells ([5]; BHK cells expressing ABCA1) |
| --- | --- | --- | --- | --- | --- | --- | --- | --- | --- | --- | --- | --- | --- |
| C[C@]12CC[C@@H](O)CC1CCC1C2CC[C@](C)(C(=O)O)C1/C=C1/Nc2ccccc2C1=O (some centres unmarked) [Hit #12] | 9.05 | 11 | 90.25 | 314 |  | 105 | 105 | Normal | Normal |  |  |  |  |
| CSC(SC)=C1CC/C(=C/c2ccc(N(C)C)cc2)C1=O [Hit #14] | 0 |  | 0 |  |  | 134 | 134 | Normal | Normal |  |  |  |  |
| O=[N+]([O-])c1ccc(N2CCCCC2)c2nonc12 [Hit #7] | 22.05 |  |  |  |  | 93 | 93 | Normal | Normal |  | No activity | No activity | had no effect |

More lines, main results first:

| Binding to ECD1 (Labelled MST) Amplitude [3] [a.u.] | Kd [3] [µM] | Binding to ECD1 (Label free MST) Amplitude [4] [a.u.] | Kd [4] [µM] | ABCA1 dependency of the effect on cholesterol efflux [5] | Compound | Plaque digestion assay (50 μM) Rodent Astrocytes ([1]; Table 2) [%] | Plaque digestion assay (50 μM) Rodent Astrocytes ([1]; Table 4) [%] | Viability Rodent Astrocytes ([2]; Table 2) | Viability Rodent Astrocytes ([2]; Table 4) | Lipidation of apoE4 in the absence of ABCA1 ([5]; BHK cells not expressing ABCA1) | ABCA1 dependency BHK Cells ([5]; Table 2) | ABCA1 dependency BHK Cells ([5]; Table 4) | Cholesterol efflux from ABCA1 expressing BHK cells ([5]; BHK cells expressing ABCA1) |
| --- | --- | --- | --- | --- | --- | --- | --- | --- | --- | --- | --- | --- | --- |
| 10.85 | 278 | 39.96 | 178 | depend on the presence of ABCA1 | Cc1nn(CC(=O)c2ccc(Br)s2)c(C)c1[N+](=O)[O-] [Hit #3] | 78 | 78 | Normal | Normal | did not stimulate any lipidation of apoE4 |  |  |  |
| 13.63 | 27 | 16.45 | > 350 | depend on the presence of ABCA1 | CC(C)(C)C(=O)COC(=O)c1ccccc1SCc1cc(-c2ccco2)on1 [Hit #4] | 62 | 62 | Normal | Normal |  |  |  |  |
